Reference: patent US11098038B2, “Imidazole-based anticancer agents and derivatives thereof, and methods of making and using same” (The University of Toledo, priority 2017, dated 2021)

What was measured:
[1] = system: NCI-H226; assay: NCI 60 screen, NCI-H226; format: cell-based; conditions: Homo sapiens, Non-Small Cell Lung
Description: (§1) The compounds synthesized were tested at the National Cancer Institute (NCI) for anti-proliferative activity in the 60 human tumor cell line assay.

[2] = system: U251; assay: NCI 60 screen, U251; format: cell-based; conditions: Homo sapiens, U-251, CNS
Description: as §1

[3] = system: MCF7; assay: NCI 60 screen, MCF7; format: cell-based; conditions: Homo sapiens, Breast
Description: as §1

[4] = system: SK-MEL-2; assay: NCI 60 screen, SK-MEL-2 (first line); format: cell-based; conditions: Homo sapiens; Melanoma, SK-MEL-2 (first of two lines so named, r37)
Description: as §1

[5] = system: KM12; assay: NCI 60 screen, KM12; format: cell-based; conditions: Homo sapiens, Colon
Description: as §1

[6] = system: SNB-75; assay: NCI 60 screen, SNB-75; format: cell-based; conditions: Homo sapiens, CNS
Description: as §1

[7] = system: T-47D; assay: NCI 60 screen, T-47D; format: cell-based; conditions: Homo sapiens, T47D, Breast
Description: as §1

[8] = system: CCRF-CEM; assay: NCI 60 screen, CCRF-CEM; format: cell-based; conditions: Homo sapiens, Leukemia
Description: as §1

[9] = system: NCI-460; assay: NCI 60 screen, NCI-460; format: cell-based; conditions: Homo sapiens, Non-Small Cell Lung
Description: as §1

[10] = system: SW-620; assay: NCI 60 screen, SW-620; format: cell-based; conditions: Homo sapiens, Colon
Description: as §1

[11] = system: HOP-62; assay: NCI 60 screen, HOP-62; format: cell-based; conditions: Homo sapiens, Non-Small Cell Lung
Description: as §1

[12] = system: HOP-92; assay: NCI 60 screen, HOP-92; format: cell-based; conditions: Homo sapiens, Non-Small Cell Lung
Description: as §1

[13] = system: HCC-2998; assay: NCI 60 screen, HCC-2998; format: cell-based; conditions: Homo sapiens, Colon
Description: as §1

[14] = system: M14; assay: NCI 60 screen, M14; format: cell-based; conditions: Homo sapiens, Melanoma
Description: as §1

[15] = system: UACC-62; assay: NCI 60 screen, UACC-62; format: cell-based; conditions: Homo sapiens, Melanoma
Description: as §1

[16] = system: DU-145; assay: NCI 60 screen, DU-145; format: cell-based; conditions: Homo sapiens, Prostatic
Description: as §1

[17] = system: OVCAR-3; assay: NCI 60 screen, OVCAR-3; format: cell-based; conditions: Homo sapiens, Ovarian
Description: as §1

[18] = system: SF-295; assay: NCI 60 screen, SF-295; format: cell-based; conditions: Homo sapiens, CNS
Description: as §1

[19] = system: SK-MEL-2; assay: NCI 60 screen, SK-MEL-2 (second line); format: cell-based; conditions: Homo sapiens; Melanoma, SK-MEL-2 (second of two lines so named, r38)
Description: as §1

[20] = system: NCI-322M; assay: NCI 60 screen, NCI-322M; format: cell-based; conditions: Homo sapiens, Non-Small Cell Lung
Description: as §1

[21] = system: SR; assay: NCI 60 screen, SR; format: cell-based; conditions: Homo sapiens, Leukemia
Description: as §1

[22] = system: HCT-116; assay: NCI 60 screen, HCT-116; format: cell-based; conditions: Homo sapiens, Colon
Description: as §1

[23] = system: OVCAR-5; assay: NCI 60 screen, OVCAR-5; format: cell-based; conditions: Homo sapiens, Ovarian
Description: as §1

[24] = system: CAKI-1; assay: NCI 60 screen, CAKI-1; format: cell-based; conditions: Homo sapiens, Renal
Description: as §1

[25] = system: UO-31; assay: NCI 60 screen, UO-31; format: cell-based; conditions: Homo sapiens, Renal
Description: as §1

[26] = system: MALME-3M; assay: NCI 60 screen, MALME-3M; format: cell-based; conditions: Homo sapiens, Melanoma
Description: as §1

[27] = system: TK-10; assay: NCI 60 screen, TK-10; format: cell-based; conditions: Homo sapiens, Renal
Description: as §1

[28] = system: LOX IMVI; assay: NCI 60 screen, LOX IMVI; format: cell-based; conditions: Homo sapiens, Melanoma
Description: as §1

[29] = system: RPMI-8226; assay: NCI 60 screen, RPMI-8226; format: cell-based; conditions: Homo sapiens, Leukemia
Description: as §1

[30] = system: K-562; assay: NCI 60 screen, K-562; format: cell-based; conditions: Homo sapiens, K562, Leukemia
Description: as §1

[31] = system: A498; assay: NCI 60 screen, A498; format: cell-based; conditions: Homo sapiens, Renal
Description: as §1

[32] = system: SF-539; assay: NCI 60 screen, SF-539; format: cell-based; conditions: Homo sapiens, CNS
Description: as §1

[33] = system: SK-OV-3; assay: NCI 60 screen, SK-OV-3; format: cell-based; conditions: Homo sapiens, Ovarian
Description: as §1

[34] = system: COLO 205; assay: NCI 60 screen, COLO 205; format: cell-based; conditions: Homo sapiens, Colon
Description: as §1

[35] = system: 786-0; assay: NCI 60 screen, 786-0; format: cell-based; conditions: Homo sapiens, Renal
Description: as §1

[36] = system: MDA-MB-231/ATCC; assay: NCI 60 screen, MDA-MB-231/ATCC; format: cell-based; conditions: Homo sapiens, Breast
Description: as §1

[37] = system: UACC-257; assay: NCI 60 screen, UACC-257; format: cell-based; conditions: Homo sapiens, Melanoma
Description: as §1

[38] = system: OVCAR-4; assay: NCI 60 screen, OVCAR-4; format: cell-based; conditions: Homo sapiens, Ovarian
Description: as §1

[39] = system: SNB-19; assay: NCI 60 screen, SNB-19; format: cell-based; conditions: Homo sapiens, CNS
Description: as §1

[40] = system: HS 578T; assay: NCI 60 screen, HS 578T; format: cell-based; conditions: Homo sapiens, Breast
Description: as §1

[41] = system: NCI-H522; assay: NCI 60 screen, NCI-H522; format: cell-based; conditions: Homo sapiens, Non-Small Cell Lung
Description: as §1

[42] = system: IGROV1; assay: NCI 60 screen, IGROV1; format: cell-based; conditions: Homo sapiens, IGROV-1, Ovarian
Description: as §1

[43] = system: SF-268; assay: NCI 60 screen, SF-268; format: cell-based; conditions: Homo sapiens, CNS
Description: as §1

[44] = system: OVCAR-8; assay: NCI 60 screen, OVCAR-8; format: cell-based; conditions: Homo sapiens, Ovarian
Description: as §1

[45] = system: NCI-H23; assay: NCI 60 screen, NCI-H23; format: cell-based; conditions: Homo sapiens, Non-Small Cell Lung
Description: as §1

[46] = system: HL-60(TB); assay: NCI 60 screen, HL-60(TB); format: cell-based; conditions: Homo sapiens, Leukemia
Description: as §1

[47] = system: SK-MEL-5; assay: NCI 60 screen, SK-MEL-5; format: cell-based; conditions: Homo sapiens, Melanoma
Description: as §1

[48] = system: SN12C; assay: NCI 60 screen, SN12C; format: cell-based; conditions: Homo sapiens, Renal
Description: as §1

[49] = system: EKVX; assay: NCI 60 screen, EKVX; format: cell-based; conditions: Homo sapiens, Non-Small Cell Lung
Description: as §1

[50] = system: MDA-MB-468; assay: NCI 60 screen, MDA-MB-468; format: cell-based; conditions: Homo sapiens, Breast
Description: as §1

[51] = system: MOLT-4; assay: NCI 60 screen, MOLT-4; format: cell-based; conditions: Homo sapiens, Leukemia
Description: as §1

[52] = system: RXF393; assay: NCI 60 screen, RXF393; format: cell-based; conditions: Homo sapiens, RXF 393, Renal
Description: as §1

[53] = system: BT-549; assay: NCI 60 screen, BT-549; format: cell-based; conditions: Homo sapiens, Breast
Description: as §1

[54] = system: MDA-MB-435; assay: NCI 60 screen, MDA-MB-435; format: cell-based; conditions: Homo sapiens, Melanoma
Description: as §1

[55] = system: HCT15; assay: NCI 60 screen, HCT15; format: cell-based; conditions: Homo sapiens, HCT-15, Colon
Description: as §1

[56] = system: HT29; assay: NCI 60 screen, HT29; format: cell-based; conditions: Homo sapiens, HT-29, Colon
Description: as §1

[57] = system: A549/ATCC; assay: NCI 60 screen, A549/ATCC; format: cell-based; conditions: Homo sapiens, Non-Small Cell Lung
Description: as §1

[58] = system: NCI/ADR-RES; assay: NCI 60 screen, NCI/ADR-RES; format: cell-based; conditions: Homo sapiens, Ovarian
Description: as §1

[59] = system: ACHN; assay: NCI 60 screen, ACHN; format: cell-based; conditions: Homo sapiens, Renal
Description: as §1

[60] = system: PC-3; assay: NCI 60 screen, PC-3; format: cell-based; conditions: Homo sapiens, Prostatic
Description: as §1

In the case of `Cn1ccnc1C(=O)/C=C/c1ccc(CC(=O)Nc2ccc(F)cc2)cc1` [Compound 28, (E)-N-(4-fluorophenyl)-2-(4-(3-(1-methyl-1H-imidazol-2-yl)-3-oxoprop-1-en-1-yl)phenyl)acetamide], the GI50 [1] is reported as 8.57 µM, the GI50 [2] is reported as 1.4 µM and the GI50 [3] is reported as 1.04 µM. It also gave a GI50 [4] of 7.01 µM, a GI50 [5] of 1.62 µM and a GI50 [6] of 3.74 µM. The GI50 [7] was 8.34 µM, the melting point was 213 °C and the GI50 [8] was 2 µM. It also gave a GI50 [9] of 1.8 µM, a GI50 [10] of 1.97 µM and a GI50 [11] of 4.68 µM. For the same molecule, the GI50 [12] was 4.51 µM, the GI50 [13] was 3.78 µM and the GI50 [14] was 3.23 µM. For the same molecule, the GI50 [15] was 3.51 µM, the GI50 [16] was 1.24 µM and the GI50 [17] was 0.96 µM. For the same molecule, the GI50 [18] was 4.55 µM, the GI50 [19] was 4.47 µM and the GI50 [20] was 2.07 µM. For the same molecule, the GI50 [21] was 0.51 µM, the GI50 [22] was 0.99 µM and the GI50 [23] was 4.36 µM. The GI50 [24] was 3.14 µM, the GI50 [25] was 1.72 µM and the GI50 [26] was 5.28 µM. For the same molecule, the GI50 [27] was 10.5 µM, the GI50 [28] was 0.71 µM and the GI50 [29] was 1.02 µM. It also gave a GI50 [30] of 0.82 µM, a GI50 [31] of 5.56 µM and a GI50 [32] of 3.59 µM. It also gave a GI50 [33] of 9.81 µM, a GI50 [34] of 4.39 µM and a GI50 [35] of 1.37 µM. The GI50 [36] was 2.96 µM, the GI50 [37] was 6.99 µM and the GI50 [38] was 5.68 µM. The GI50 [39] was 2.74 µM, the GI50 [40] was 1.5 µM and the GI50 [41] was 3.34 µM. For the same molecule, the GI50 [42] was 2.93 µM, the GI50 [43] was 2.89 µM and the GI50 [44] was 5.71 µM. For the same molecule, the GI50 [45] was 3.04 µM, the GI50 [46] was 1.6 µM and the GI50 [47] was 4.45 µM. The GI50 [48] was 1.62 µM, the GI50 [49] was 5.5 µM and the GI50 [50] was 1.72 µM. For the same molecule, the GI50 [51] was 2.32 µM, the GI50 [52] was 3.89 µM and the GI50 [53] was 1.32 µM. The GI50 [54] was 4.25 µM, the GI50 [55] was 1.29 µM and the GI50 [56] was 2.27 µM. The GI50 [57] was 6.43 µM, the GI50 [58] was 4.24 µM and the GI50 [59] was 5.74 µM. The GI50 [60] was 1.99 µM.
